In series [1] the test system is CRD enzyme. In words: Effect of metal ions and inhibitors on CRD enzyme activity, ethyl 4-chloroacetoacetate as substrate. It counts as biochemical, Candida magnoliae IFO 0705.
The test system of series [2] is CRD enzyme. In words: Substrate specificity of the purified CRD enzyme (decrease in NADPH absorption at 340 nm). The class given is biochemical, Candida magnoliae IFO 0705. The following applies: for Relative activity (%): Substrate 0.2 mM, 0.32 mM NADPH, 200 mM phosphate buffer pH 7.0, 30° C., ethyl 4-chloroacetoacetate = 100; for substrate specificity (activity of the enzyme to the substrate, in words): NADPH as coenzyme. How it is done:
First, the above yeast is cultured in an appropriate medium, and microbe bodies are collected from the resultant culture by centrifugation. The microbe bodies are destroyed by Dyno mill (manufactured by Dyno-Mill), for example, and centrifuged to remove cell debris and thus obtain a cell-free extract. The cell-free extract is then subjected to a processing, such as salting-out (e.g., ammonium sulfate precipitation and sodium phosphate precipitation), solvent precipitation (a protein fractionation precipitation method using acetone, ethanol, or the like), dialysis, gel filtration, ion exchange, column chromatography such as a reverse phase chromatography, and ultrafiltration, alone or in combination, to purify the enzyme. The CRD enzyme activity can be determined by measuring a reduction in the absorption at 340 nm at 30° C., for a 100 mM phosphate buffer (pH 6.5) with 1 mM ethyl 4-chloroacetoacetate as a substrate, 0.1 mM NADPH as a coenzyme, and the enzyme added thereto, or a 200 mM phosphate buffer (pH 7.0) with 0.2 mM ethyl 4-chloroacetoacetate as a substrate and 0.32 mM NADPH as a coenzyme added thereto. Under these reaction conditions, oxidation of 1 μmol NADPH into NADP in one minute is defined as one unit of enzymatic activity.
The enzyme activity was determined by, basically, allowing 3 ml of a reaction solution including 0.2 mM ethyl 4-chloroacetoacetate as a substrate, 0.32 mM NADPH as a coenzyme, and 0.1 ml of an enzyme solution in a 200 mM phosphate buffer (pH 7.0) to react at 30° C. for one minute and measuring a reduction in the absorption at 340 nm.
The enzyme according to the present invention was reacted using various carbonyl compounds shown in Table 1 below as a substrate under the same conditions as those used for ethyl 4-chloroacetoacetate.

Series [3] deals with CRD enzyme. Nature of the series: Organic solvent resistance of the CRD enzyme. It counts as biochemical, Candida magnoliae IFO 0705. The following applies: equivalent amount of solvent added to phosphate buffer (pH 7.0), shaken at 28° C. for 30 minutes.
Series [4] is classed as physicochemical, Candida magnoliae IFO 0705. As to conditions: 0.5 h, pH 7. How it is done: The expression that an enzyme is “stable” as used herein means that after being processed at pH 7.0 at 40° C. for 30 minutes the enzyme sustains an activity of 90% or more of that before the processing.
After the enzyme according to the present invention was treated at pH 7.0at 40° C. for 30 minutes, the activity of the enzyme was measured using ethyl 4-chloroacetoacetate as a substrate. As a result, the activity of 90% of that before the treatment remained.

Setting [5] is: Concentration of addition 0.1 mM, non-added = 100.
Setting [6] is: Concentration of addition 1 mM, non-added = 100.

As for `O=[N+]([O-])c1ccc(O)c([N+](=O)[O-])c1` [2,4-dinitrophenol], in the series with CRD enzyme [1] (setting [5]), the “Relative activity (%)” value is listed as 86%.
`O=Cc1ccccc1` [Benzaldehyde]: the “Relative activity (%)” value in the series with CRD enzyme [2] was found to be 0%.
Regarding `CC12CCC(C(=O)C1=O)C2(C)C` (stereo not shown) [Camphor quinone], the “Relative activity (%)” value with CRD enzyme [2] is listed as 0%.
As for `[Cl][Cd][Cl]` [CdCl2], the “Relative activity (%)” value in the series on CRD enzyme [1] (setting [6]) is 91%.
Consider `O=CCCl` [Chloroacetoaldehyde], for which, in the series on CRD enzyme [2], the “Relative activity (%)” value was found to be 0%.
As to `[Cl-].[Cl-].[Co+2]` [CoCl2], the “Relative activity (%)” value in the series on CRD enzyme [1] came to 89%.
On to `O=S(=O)([O-])[O-].[Cu+2]` [CuSO4], for which, in the series with CRD enzyme [1] (setting [6]), the “Relative activity (%)” value is recorded as 85%.
`O=C(O)c1cc(SSc2ccc([N+](=O)[O-])c(C(=O)O)c2)ccc1[N+](=O)[O-]` [DTNB]: the “Relative activity (%)” value in the series with CRD enzyme [1] (Concentration of addition 0.05 mM, non-added = 100) came out at 100%.
As for `CC(=O)C(C)=O` [Diacetyl], in the series on CRD enzyme [2], the “Relative activity (%)” value was 19%.
Consider `O=c1oc2ccccc2c(O)c1Cc1c(O)c2ccccc2oc1=O` [Dicoumarol], for which the “Relative activity (%)” value with CRD enzyme [1] (setting [5]) was determined as 97%.
Regarding `O=C(O)CN(CCN(CC(=O)O)CC(=O)O)CC(=O)O` [EDTA], the “Relative activity (%)” value in the series with CRD enzyme [1] (setting [6]) came to 95%.
As to `CCOC(=O)CC(C)=O` [Ethyl acetoacetate], in the series on CRD enzyme [2], the “substrate specificity (activity of the enzyme to the substrate, in words)” value is given as “substantially no activity” and the “Relative activity (%)” value is 0%.
Regarding `O=CC=O` [Glyoxal], in the series with CRD enzyme [2], the “Relative activity (%)” value turned out to be 0%.
As to `[Cl][Hg][Cl]` [HgCl2], the “inhibitor (enzyme inhibited, in words)” value with CRD enzyme [1] is on record as “inhibited”. Further, in the series with CRD enzyme [1] (setting [5]), the “Relative activity (%)” value was found to be 49%.
As for `O=C(O)CI` [Iodoacetic acid], the “Relative activity (%)” value with CRD enzyme [1] was found to be 100%.
As for `CC(=O)C=O` [Methyl glyoxal], the “Relative activity (%)” value in the series with CRD enzyme [2] is recorded as 0%.
As for `[Cl-].[Cl-].[Mg+2]` [MgCl2], the “Relative activity (%)” value in the series on CRD enzyme [1] (setting [6]) was 83%.
On to `CCN1C(=O)C=CC1=O` [NEM], for which the “Relative activity (%)” value with CRD enzyme [1] (setting [6]) is reported as 105%.
As to `O=Cc1cccnc1` [Nicotinaldehyde], the “Relative activity (%)” value in the series on CRD enzyme [2] is recorded as 0%.
`O=S(=O)(F)Cc1ccccc1` [PMSF]: the “Relative activity (%)” value with CRD enzyme [1] (setting [6]) is given as 93%.
With `[Cl][Pb][Cl]` [PbCl2], the “Relative activity (%)” value in the series with CRD enzyme [1] (setting [6]) stood at 86%.
Take `NNc1ccccc1` [Phenylhydrazine]: the “Relative activity (%)” value with CRD enzyme [1] (setting [6]) is on record as 97%.
As for `O=c1c(O)c(-c2ccc(O)c(O)c2)oc2cc(O)cc(O)c12` [Quercetin], in the series on CRD enzyme [1], the “inhibitor (enzyme inhibited, in words)” value is reported as “inhibited”. The “Relative activity (%)” value with CRD enzyme [1] (Concentration of addition 0.01 mM, non-added = 100) was determined as 84%; with CRD enzyme [1] (setting [5]) it was 0%.
Regarding `[Cl][Sn][Cl]` [SnCl2], in the series on CRD enzyme [1] (setting [6]), the “Relative activity (%)” value is on record as 77%.
With `O=S(=O)([O-])[O-].[Zn+2]` [ZnSO4], in the series with CRD enzyme [1] (setting [6]), the “Relative activity (%)” value was determined as 97%.
On to `CCCCOC(C)=O` [butyl acetate], for which the “residual activity of the enzyme in the aqueous phase” value with CRD enzyme [3] is 85%.
In the case of `CCOC(=O)C(Cl)C(C)=O` (stereo not shown) [ethyl 2-chloroacetoacetate], in the series on CRD enzyme [2], the “Relative activity (%)” value was 95%.
On to `CCOC(=O)CC(=O)CCl` [ethyl 4-chloroacetoacetate], for which, in the series on CRD enzyme [2], the “substrate specificity (activity of the enzyme to the substrate, in words)” value was “strong activity” and the “Relative activity (%)” value amounted to 100%.
As for `CCOC(C)=O` [ethyl acetate], in the series with CRD enzyme [3], the “residual activity of the enzyme in the aqueous phase” value amounted to 72%.
Take `O=Cc1ccncc1` [isonicotinaldehyde]: in the series with CRD enzyme [2], the “Relative activity (%)” value worked out at 0%.
Same read-out and setting: in the case of `O=Cc1cccc(Cl)c1` [m-chlorobenzaldehyde] it was 0%; in that of `O=Cc1cccc([N+](=O)[O-])c1` [m-nitrobenzaldehyde], 0%; in that of `COC(=O)C(Cl)C(C)=O` (stereo not shown) [methyl 2-chloroacetoacetate], 11%.
On to `COC(=O)CC(=O)CCl` [methyl 4-chloroacetoacetate], for which the “Relative activity (%)” value in the series with CRD enzyme [2] turned out to be 11%.
Turning to `O=Cc1ccccc1Cl` [o-chlorobenzaldehyde], the “Relative activity (%)” value with CRD enzyme [2] is on record as 0%.
As to `O=Cc1ccccc1[N+](=O)[O-]` [o-nitrobenzaldehyde], the “Relative activity (%)” value in the series with CRD enzyme [2] worked out at 0%.
For the molecule `CCCCCCCCOC(=O)CC(=O)CCl` [octyl 4-chloroacetoacetate], the “Relative activity (%)” value with CRD enzyme [2] was 36%.
Turning to `O=C(O)c1cc[c]([Hg][Cl])cc1` [p-CMB], the “Relative activity (%)” value in the series with CRD enzyme [1] (setting [6]) amounted to 88%.
`O=Cc1ccc(Cl)cc1` [p-chlorobenzaldehyde]: in the series with CRD enzyme [2], the “Relative activity (%)” value turned out to be 0%.
`O=Cc1ccc([N+](=O)[O-])cc1` [p-nitrobenzaldehyde]: in the series on CRD enzyme [2], the “Relative activity (%)” value was 0%.

B1: CRD enzyme: carbonyl reductase purified from Candida magnoliae IFO 0705, amino acid sequence SEQ ID NO:1 (protein, listed as Candida magnoliae)
chain: MAKNFSNVEYPAPPPAHTKNESLQVLDLFKLNGKVASITGSSSGIGYALAEAFAQVGADVAIWYNSHDATGKAEALAKKYGVKVKAYKANVSSSDAVKQTIEQQIKDFGHLDIVVANAGIPWTKGAYIDQDDDKHFDQVVDVDLKGVGYVAKHAGRHFRERFEKEGKKGALVFTASMSGHIVNVPQFQATYNAAKAGVRHFAKSLAVEFAPFARVNSVSPGYINTEISDFVPQETQNKWWSLVPLGRGGETAELVGAYLFLASDAGSYATGTDIIVDGGYTLP
On to B1, for which the “heat stability: activity remaining relative to before the treatment” value in series [4] was determined as 90%.

Values taken from patent US6448052B2, “Carbonyl reductase enzyme and methods for its use” (Kaneka Corporation, priority 1997, dated 2002).
